Source: ChEMBL document CHEMBL5338709, “Design, synthesis, and structure-activity relationship of TAK-418 and its derivatives as a novel series of LSD1 inhibitors with lowered risk of hematological side effects” (Eur J Med Chem, 2022)
pIC50: −log10 of the molar value.

Key:
[1] = tested on: Mus musculus; assay: Improvement of recognition memory in NR1 hypofunction mouse assessed as novelty discrimination index at 0.3 mg/kg, po administered once daily for 2 weeks by novel object recognition test (reference value: 51.4 +/- 3.1%); assay type: functional
[2] = tested on: Mus musculus; assay: Improvement of recognition memory in NR1 hypofunction mouse assessed as novelty discrimination index at 1 mg/kg, po administered once daily for 2 weeks by novel object recognition test (reference value: 51.4 +/- 3.1%); assay type: functional
[3] = AUC (0 to 24 hrs) in ICR mouse at 10 mg/kg, po; assay type: ADME, organism-based; design: dose 10 mg/kg, route po; conditions: in vivo
[4] = Toxicity in ICR mouse assessed as reduction in red blood cell count upto 100 mg/kg/day, po administered for 4 days; assay type: organism-based; conditions: in vivo, 96 h, time 4 day
[5] = Toxicity in ICR mouse assessed as reduction in platelet count upto 100 mg/kg/day, po administered for 4 days; assay type: organism-based; conditions: in vivo, 96 h, time 4 day
[6] = Toxicity in ICR mouse assessed as reduction in white blood cell count upto 100 mg/kg/day, po administered for 4 days; assay type: organism-based; conditions: in vivo, 96 h, time 4 day
[7] = Metabolic stability in mouse liver microsomes assessed as clearance at 1 uM incubated for 15 to 30 mins in presence of NADPH generating system by LC-MS/MS analysis; assay type: ADME, Microsome; conditions: time 15-30 min, read-out: CLH
[8] = tested on: GFI1 mRNA; assay: Hematological toxicity in human TF-1a cells assessed as fold increase in GFI1 mRNA expression at 10 uM incubated for 1 day by RT-qPCR analysis relative to control; assay type: cell-based; conditions: read-out: FC
[9] = target: LSD1/CoREST complex (Homo sapiens, UniProt O60341); assay: Inhibition of recombinant human LSD1 (172 to 852 residues)/His-tagged human CoREST (286 to 482 residues) expressed in Escherichia coli BL21 (DE3) cells using ART(mK)QTARKSTGGKAPRKQLAGGK-Biotin as substrate assessed as increase in H3K4 methylation incubated for 40 mins
[10] = target: Lysine-specific histone demethylase 1A (Homo sapiens, UniProt O60341); assay: Inhibition of LSD1 (unknown origin)

Row | SMILES | microsomal CLint at 1 µM [7] [µL/min/mg] | fold induction at 24 h, 10 µM [8] | pIC50 [9] | other results
1 | O=C(NC1CCOCC1)c1csc([C@@H]2C[C@H]2NCC2CC2)c1 | – | – | – | Activity [1]: 62.7%; Activity [2]: 66%; AUC(0-t) [3]: 1050 ng·h/mL
2 | Cc1nnc(NC(=O)c2cccc([C@@H]3C[C@H]3NCC3CC3)c2)s1 | – | – | – | Activity [4]: Non-Toxic; Activity [5]: Non-Toxic; Activity [6]: Non-Toxic
3 | Cc1nnc(NC(=O)c2cc([C@@H]3C[C@H]3NCC3CC3)cs2)s1 (racemic) | 15 | – | – | –
4 | O=C(NC1CCOCC1)c1csc([C@@H]2C[C@H]2NCC2CC2)c1 (racemic) | 13 | – | – | –
5 | Cc1nnc(NC(=O)c2csc([C@@H]3C[C@H]3NCC3CC3)c2)s1 (racemic) | 26 | – | – | –
6 | O=C(Nc1cccc([C@@H]2C[C@H]2NCC2CC2)c1)c1ccccc1 (racemic) | – | 3.51 | 5.74 | –
7 | CN(C(=O)c1cccc([C@@H]2C[C@H]2NCC2CC2)c1)c1ccccc1 (racemic) | – | 9.6 | 6.07 | –
8 | O=C(NC1CCC(F)(F)CC1)c1cccc([C@@H]2C[C@H]2NCC2CC2)c1 (racemic) | 26 | – | – | –
9 | O=C(Nc1ccccc1)c1ccccc1[C@@H]1C[C@H]1NCC1CC1 (racemic) | – | – | < 5.00 | –
10 | O=C(Nc1ccccc1)c1ccc([C@@H]2C[C@H]2NCC2CC2)cc1 (racemic) | – | 10.6 | – | pIC50 [10]: 9.00
11 | O=C(NC1CCOCC1)c1cccc([C@@H]2C[C@H]2NCC2CC2)c1 (racemic) | 11 | – | – | –
12 | O=C(Nc1ccc([C@@H]2C[C@H]2NCC2CC2)cc1)c1ccccc1 (racemic) | – | 10.7 | – | pIC50 [10]: 8.85

The next lines start with results.

Row | microsomal CLint at 1 µM [7] [µL/min/mg] | SMILES | fold induction at 24 h, 10 µM [8] | pIC50 [9] | other results
13 | 101 | O=C(Nc1ccccc1)c1cccc([C@@H]2C[C@H]2NCC2CC2)c1 (racemic) | 1.97 | 7.09 | –
14 | 10 | Cc1nnc(NC(=O)c2cccc([C@@H]3C[C@H]3NCC3CC3)c2)s1 (racemic) | – | – | –
15 | 47 | O=C(Nc1cccnc1)c1cccc([C@@H]2C[C@H]2NCC2CC2)c1 (racemic) | 1.53 | 6.80 | –
